The values below come from US20260373497A1, “MOLECULAR MACHINES STIMULATE INTERCELLULAR CALCIUM WAVES AND CAUSE MUSCLE CONTRACTION” (William Marsh Rice University, priority 2022, published 2026).

Series [1] has as its system HEK293 cells. Briefly: Pharmacological blocking of MM 1-induced calcium responses. In kind it is cell-based. The following applies: role: inhibitor, MM 1 + light. As for the experimental part: FIGS. 14A-14J—Mechanistic study of MM-induced ICW. (a) Schematic of possible mechanisms by which calcium can enter the cytoplasm. Prepared with Biorender.com. (b) Confocal microscope images of HEK293 cells treated with MM 1, MitoTracker Green, ER Tracker Red, and CellMask Deep Red. Scale bars are both 20 μm and apply to the images in the same row. (c-h) Calcium waves elicited by MM 1-treated cells (c) in calcium-free PBS, (d) in RR (1 μM), (e) in Gd^3+ (50 μM), (f) after treatment of cells with Th (1 μM), (g) in Ry (100 μM), (h) in XeC (25 μM), (i) in U-73 (10 μM), (j) after pre-treatment of cells with Cyto D (2 μM). The solid line represents the calcium profiles averaged from six independent cells. The shaded region represents the standard error of the mean (n=6). Stimuli were presented after 30 s of imaging in each case, and the time of stimulus presentation is indicated by the vertical cyan line. […] All stimuli were delivered with a pulse width of 250 ms to a circular area of diameter 5 μm at a power ranging from 3.2×10^2 W cm^−2 to 5.1×10^2 W cm^−2. For all plots, the cyan line indicates the time of stimulus presentation. Controls and experimental groups were imaged and stimulated on the same day using the same conditions and with the same batch of cells. Error bars in the bar graphs represent the standard deviation of the mean of n=3 experiments (at least 6 stimulated cells per experiment). Statistical analyses were performed using a one-tailed Welch's t-test. * P-value<0.05, ** P-value<0.01, *** P-value<0.001, **** P-value<0.0001.
Imaging was conducted in imaging extracellular buffer (iECB; 119 mM NaCl, 5 mM KCl, 10 mM HEPES, 2 mM CaCl2, 1 mM MgCl2 (pH 7.2); 320 mOsm). Imaging in calcium-free medium was conducted in phosphate-buffered saline. Cells were prepared for imaging by seeding a 35 mm Ibidi imaging dish with ~50,000 cells in 1 mL of DMEM, and grown at 37 °C, 5% CO2 for 2 days. Prior to imaging, cells were incubated with dyes and/or molecules resuspended in complete growth medium at the appropriate concentration (MM 1 (8 μM), MM 2 (8 μM), MM 3 (24 μM), MM 4 (8 μM), Fluo-4 (2 μM)). MM and Fluo-4 were loaded into cells for 45 min. Cells treated with thapsigargin were exposed for 30 min after MM and Fluo-4 loading. Cells treated with organelle-targeting dyes were exposed for 5 min after MM loading. Ruthenium red and Gd^3+ were included in the imaging medium during stimulation and were associated with cells for 10 min prior to imaging. At the end of incubation, this medium was replaced with the iECB. Unless otherwise specified, all experiments were replicated in triplicate.
Pharmacological Experiments: In pharmacological blocking experiments, cells were loaded with MM and Fluo-4 as previously described. Typical imaging experiments in previously described extracellular buffer were then conducted as a positive control. Then, the imaging buffer was replaced, and the cells were treated as required for each experiment. After a brief recovery period, the cells were imaged again, and six different cells were stimulated. Experiments in calcium-free imaging buffer used phosphate buffered saline. Thapsigargin (Th: 1 μM) and Cytochalasin D (Cyto D; 2 μM) were incubated with cells in complete growth medium for 1 h (Th) or 2 h (Cyto D) before imaging. Ruthenium red (RR; 1 μM), gadolinium (Gd; 50 μM), ryanodine (Ry; 100 μM), xestospongin C (XeC; […]), and U-73122 (U-73; 10 μM) were administered directly into the imaging medium. Cells were incubated in the medium for ~5 min prior to imaging. Traces presented are representative results across at least six cells from single experiments, while bar graphs represent the average results across at least three distinct experiments.

Series [2] has as its system HEK293 cells. In words: ROS scavengers on MM 1-induced calcium waves. In kind it is cell-based. The following applies: melatonin 100 μM, thiourea 50 mM, L-ascorbic acid 2 mM; 1 h; MM 1, 4.5×10^2 W cm^−2. As to the method: Normalized fluorescence intensity traces of HEK293 cells treated with MM 1 and Fluo-4 and administered (a) melatonin (Mel; 100 μM), (b) thiourea (ThioU; 50 mM), and (c) L-ascorbic acid (Vit C; 2 mM). The shaded region indicates the standard error of n=6 stimulation attempts. Dark traces indicate positive controls collected prior to treatment. Stimulation was administered at 4.5×10^2 W cm^−2. Cells were incubated with chosen ROS scavengers for 1 h prior to stimulation.

The conditions of series [3]: cited from earlier work.
A further series concerns C2C12 myotubes. Briefly: C2C12 myotube contraction (image subtraction). It is filed as cell-based, mouse. As to the method:
FIG. 35—Flow chart for the image subtraction process. First, the background is subtracted from the traces to account for drift during the course of the experiment (top row). After this, the traces are zeroed at the point of stimulation, and the area is calculated from the point of stimulation until the end of the experiment to yield the contraction magnitude. (bottom row).
FIGS. 40A-40D—MMs induce contraction in C2C12 myotubes, a) Confocal microscopy images of Fluo-4 and b) image subtraction of brightfield images to highlight calcium release and contractile motion in three stimulated myotubes (indicated by the red arrows) immediately before stimulation (t=0) for 1.5 s with 400-nm light, as well as 10 s and 120 s after stimulation. Scale bar=30 μm. c) Magnitude of contraction of MM 1 compared to DMSO, MM 2, MM 3, and cells treated with 10 μM U-73122. d) Mechanism of skeletal muscle cell contraction.
This method yielded images where the pixel intensity corresponds to movement over the course of the experiment (FIG. 40C), allowing us to easily visualize and quantify contraction.

Series [4] in a line: UV-Vis absorbance of motors in DMSO. It is filed as physicochemical. An excerpt: The UV-Vis spectrum of each motor was also acquired in DMSO (FIG. 37D) to ensure that the difference in absorbance at 400 nm was not the cause of larger or smaller responses.
The subject of a further series is C2C12 myoblasts. In words: Pathway inhibitors on MM-induced calcium release in C2C12 myoblasts. It is filed as cell-based, mouse. The settings on record: role: inhibitor; for Effect on MM-induced calcium signaling: SQ22536 100 μM, cAMPS-Rp 200 μM. As for the experimental part: FIGS. 38A-38F—Calcium release in C2C12 myoblasts occurs by means of the IP3 pathway. Average normalized fluorescence intensity traces of C2C12 myoblasts before and after treatment with a) 10 μM U-73122 (PLC inhibitor), b) 100 μM gallein (GPCRβγ inhibitor), c) 1 μM FR900359 (GPCRα inhibitor), d) 200 μM cAMPS-Rp (cAMP antagonist, inhibits PKA activation), e) 100 μM SQ22536 (adenylyl cyclase inhibitor), and f) 1 μM nintedanib (RTK inhibitor).
It was determined that MMs activate the IP3 pathway by inhibiting key proteins along the pathway. If inhibition of a specific protein decreases the magnitude of the observed calcium responses, then it can be assumed that the targeted protein played an important role in propagating the calcium signaling pathway that was initiated by MMs. […] When both gallein and FR900359 are used simultaneously, a similar decrease of ~50% also occurs (FIG. 33). […] This may occur either through direct MM activation or indirectly through MM activation of a different signaling pathway. It is known that RTKs can also activate PLC (Bill and Vines, 2020).
The effect of cAMP pathway inhibition on the elicited calcium signaling responses was measured by using 100 μM SQ22536 to inhibit adenylyl cyclase (FIG. 38D) and 200 μM cAMPS-Rp (FIG. 38E), a cAMP antagonist that inhibits protein kinase A (PKA) activation. […] At this moment it cannot be concluded whether this effect is because MMs also activate the GPCRs associated with the cAMP pathway, or if inhibition of adenylyl cyclase and PKA naturally affects normal calcium signaling pathways, regardless of MM stimulation.

Turning to `[Gd+3]` [Gd^3+, gadolinium], the “Effect on MM-induced calcium responses” value with HEK293 cells [1] (Gd^3+ 50 μM) was “did not affect the observed responses”.
Regarding `O=C1O[C@H]([C@@H](O)CO)C(O)=C1O` [L-ascorbic acid], the “Effect of ROS scavenger on MM induced ICW” value (“Effect of ROS scavenger” below) in the series with HEK293 cells [2] is reported as “does not affect MM induced ICW”.
Take `CN(C)CCNc1ccc2c(c1)Sc1ccccc1C2=C1CCc2ccc3ccccc3c21` [MM 2 (fast, bidirectional)]: the Rotation rate in series [3] is given as ~ 3 MHz. In addition, the Myotube contraction entry in the series on C2C12 myotubes (400-nm light 1.5 s, image subtraction) was “Strong cellular contraction did not occur”. For the same compound, the “Absorbance at 400 nm” value in series [4] was “nearly identical absorbances at 400 nm”.
In the case of `Nc1ncnc2c1ncn2C1CCCO1` (stereo not shown) [SQ22536], the “Effect on MM-induced calcium signaling” value with C2C12 myoblasts is on record as “small reduction in calcium signaling”.
In the case of `COc1ccc2c(c1)CC[C@@H]1[C@@H]2CC[C@]2(C)[C@@H](NCCCCCCN3C(=O)C=CC3=O)CC[C@@H]12` [U-73122, reference compound], in the series on C2C12 myoblasts (U-73122 10 μM), the “Effect on MM-induced calcium responses” value was “completely abolished”. For the same compound, the “Myotube contraction magnitude with PLC inhibitor” value with C2C12 myotubes (role: inhibitor, U73 (10 μM) with MM 1 + light) is reported as “contraction magnitude equal to that of the DMSO control”.
Regarding `Nc1ncnc2c1ncn2[C@@H]1O[C@@H]2CO[P@@](O)(=S)O[C@H]2[C@H]1O` [cAMPS-Rp], in the series with C2C12 myoblasts, the “Effect on MM-induced calcium signaling” value is reported as “small reduction in calcium signaling”.
Turning to `C=C1[C@@H](C)[C@H]2[C@H](Cc3ccccc3)NC(=O)[C@]23[C@H](OC(C)=O)/C=C/[C@@](C)(O)C(=O)[C@@H](C)C/C=C/[C@H]3[C@@H]1O` [cytochalasin D], the “Effect on MM-induced calcium responses” value in the series on HEK293 cells [1] (cytochalasin D 2 μM, P=0.01762) is reported as “inhibited”.
Turning to `O=C1OC2(c3ccccc31)c1ccc(O)c(O)c1Oc1c2ccc(O)c1O` [gallein], the inhibition at 100 µM with C2C12 myoblasts (Mus musculus, C2C12, gallein 100 μM, read-out: Reduction in observed calcium response) was about 50%.
Regarding `COc1ccc2[nH]cc(CCNC(C)=O)c2c1` [melatonin], in the series on HEK293 cells [2], the “Effect of ROS scavenger” value is on record as “does not affect MM induced ICW”.
Take `COC(=O)c1ccc2c(c1)NC(=O)/C2=C(\Nc1ccc(N(C)C(=O)CN2CCN(C)CC2)cc1)c1ccccc1` [nintedanib]: in the series with C2C12 myoblasts (nintedanib 1 μM (RTK inhibition)), the “Effect on MM-induced calcium responses” value is listed as “no decrease in magnitude of the elicited calcium responses”.
`N.N.N.N.N.N.N.N.N.N.N.N.N.N.[Cl-].[Cl-].[Cl-].[Cl-].[Cl-].[Cl-].[O-2].[O-2].[Ru+3].[Ru+3].[Ru+4]` [ruthenium red]: the “Effect on MM-induced calcium responses” value with HEK293 cells [1] (ruthenium red 1 μM (10 μM in Table 2)) is “did not decrease the magnitude of MM-induced calcium responses”.
Turning to `C/C=C(/C)C(=O)O[C@H]1C(C)=C2[C@H]([C@@H]1OC(=O)CCCCCCC)[C@@](C)(OC(C)=O)C[C@H](OC(=O)CCC)[C@@]1(O)[C@H]2OC(=O)[C@@]1(C)O` [thapsigargin], the “Effect on MM-induced calcium responses” value in the series with HEK293 cells [1] (thapsigargin 1 μM, P=0.00257) is listed as “did not show any measurable calcium flux upon light stimulation”.
As for `NC(N)=S` [thiourea], in the series on HEK293 cells [2], the “Effect of ROS scavenger” value was “does not affect MM induced ICW”.
As to `C1CCC[C@H]2CCCN3CC[C@@H](CCCCCC[C@@H]4CCCN5CC[C@@H](CC1)O[C@@H]45)O[C@@H]23` [xestospongin C], the “Effect on MM-induced calcium responses” value in the series on HEK293 cells [1] (XeC 25 μM (20 μM in Table 2), P=0.0167) is recorded as “significantly diminished the strength of cellular responses to MM”.
Take FR900359: in the series on C2C12 myoblasts (FR900359 1 μM), the “Reduction in observed calcium response” value is ~ 50%.
ryanodine: the “Effect on MM-induced calcium response amplitude” value in the series with HEK293 cells [1] (ryanodine 100 μM) was “no effect on response amplitude”.
